# Tests used:
# [1] = target: T1, VEGFR2 (Homo sapiens, UniProt P35968); assay: DiscoverX KINOMEscan competition binding assay; settings: compound 10 µM; lower values = higher affinity; below 35% = significant binding
# T1 construct: purchased DiscoverX (KINOMEscan service); host or cells: E. coli BL21-derived host (T7 phage) or HEK-293
# Experimental: (§1) Ligand binding experiments for the molecules selected from Profiles 1 and 2 towards nine kinases (EGFR, ErbB2, LCK, CDK2, BRAF, MET, p38α, PI3K and VEGFR2) and for molecules selected from Profiles 3 and 4 towards four kinases (EGFR, ErbB2, BRAF and VEGFR2) were carried out by DiscoverX using the supplied protocol as described in the Supplementary Materials. Briefly, ligand affinity was measured by competition with a resin-bound standard ligand and washed-off kinase concentration was determined via qPCR.
# (§2) Summarizing, binding of a compound to a kinase was tested in comparison to a control compound (see Table S2). […]
# (§3) 1.1. DiscoverX kinase assay
# (§4) For most assays, kinase-tagged T7 phage strains were grown in parallel in 24-well blocks in an E.coli host derived from the BL21 strain. E.coli were grown to log-phase and infected with T7 phage from a frozen stock (multiplicity of infection = 0.4) and incubated with shaking at 32°C until lysis (90-150 minutes). The lysates were centrifuged (6,000 x g) and ﬁltered (0.2µm) to remove cell debris.
# (§5) The remaining kinases were produced in HEK-293 cells and subsequently tagged with DNA for qPCR detection. Streptavidin-coated magnetic beads were treated with biotinylated small molecule ligands for 30 minutes at room temperature to generate afﬁnity resins for the kinases. The liganded beads were blocked with excess biotin and washed with blocking buffer (SeaBlock [Pierce], 1% BSA, 0.05% Tween 20, 1 mM DTT) to remove unbound ligands and to reduce non-speciﬁc phage binding. Binding reactions were assembled by combining kinases, liganded afﬁnity beads, and test compounds in 1x binding buffer (20% SeaBlock, 0.17x PBS, 0.05% Tween 20, 6 mM DTT). Test compounds were prepared as 40x stocks in 100% DMSO and directly diluted into the assay. All reactions were performed in polypropylene 384-well plates in a ﬁnal volume of 0.02 ml. The assay plates were incubated at room temperature with shaking for 1 hour and the afﬁnity beads were washed with wash buffer (1x PBS, 0.05% Tween 20). The beads were then re-suspended in elution buffer (1x PBS, 0.05% Tween 20, 0.5 µM non-biotinylated afﬁnity ligand) and incubated at room temperature with shaking for 30 minutes. The kinase concentration in the eluates was measured by qPCR. […]
# (§6) Table S2. Experimental % control values from the DiscoverX kinase assay. Compounds were tested against the nine kinases EGFR, ErbB2, LCK, CDK2, BRAF, MET, p38α, PI3K and VEGFR2, unless otherwise stated. Binding of kinase and compound were tested at a compound concentration of 10 µM and in comparison to a control compound. Lower values indicate a higher afﬁnity of the compound to the protein and values below 35% indicate signiﬁcant binding according to information of the CRO. […]
# (§7) a Compounds were only tested against four kinases (EGFR, ErbB2, BRAF and VEGFR2). b Compound was selected independently from two docking proﬁles and tested separately during
# [2] = target: T2, p38α (Homo sapiens, UniProt Q16539); assay: DiscoverX KINOMEscan competition binding assay; settings: compound 10 µM; lower values = higher affinity; below 35% = significant binding
# T2 construct: purchased DiscoverX (KINOMEscan service); host or cells: E. coli BL21-derived host (T7 phage) or HEK-293
# T2 sequence (Q16539 whole entry): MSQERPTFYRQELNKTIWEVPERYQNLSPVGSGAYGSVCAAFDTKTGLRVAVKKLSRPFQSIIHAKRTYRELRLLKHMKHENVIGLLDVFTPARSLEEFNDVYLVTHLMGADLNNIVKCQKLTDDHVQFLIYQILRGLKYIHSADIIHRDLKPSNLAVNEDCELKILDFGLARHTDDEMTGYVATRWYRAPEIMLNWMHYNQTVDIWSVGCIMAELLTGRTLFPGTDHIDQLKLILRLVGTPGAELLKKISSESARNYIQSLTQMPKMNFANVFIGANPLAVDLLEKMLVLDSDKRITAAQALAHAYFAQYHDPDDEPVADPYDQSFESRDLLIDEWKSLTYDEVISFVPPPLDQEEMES
# Experimental: as §1, §2, §3, §4, §5, §6, §7
# [3] = target: T3, LCK (Homo sapiens, UniProt P06239); assay: DiscoverX KINOMEscan competition binding assay; settings: compound 10 µM; lower values = higher affinity; below 35% = significant binding
# T3 construct: purchased DiscoverX (KINOMEscan service); host or cells: E. coli BL21-derived host (T7 phage) or HEK-293
# Experimental: as §1, §2, §3, §4, §5, §6, §7
# [4] = target: T4, ErbB2 (Homo sapiens, UniProt P04626); assay: DiscoverX KINOMEscan competition binding assay; settings: compound 10 µM; lower values = higher affinity; below 35% = significant binding
# T4 construct: purchased DiscoverX (KINOMEscan service); host or cells: E. coli BL21-derived host (T7 phage) or HEK-293
# Experimental: as §1, §2, §3, §4, §5, §6, §7
# [5] = target: T5, MET (Homo sapiens, UniProt P08581); assay: DiscoverX KINOMEscan competition binding assay; settings: compound 10 µM; lower values = higher affinity; below 35% = significant binding
# T5 construct: purchased DiscoverX (KINOMEscan service); host or cells: E. coli BL21-derived host (T7 phage) or HEK-293
# T5 sequence (P08581 25-1390): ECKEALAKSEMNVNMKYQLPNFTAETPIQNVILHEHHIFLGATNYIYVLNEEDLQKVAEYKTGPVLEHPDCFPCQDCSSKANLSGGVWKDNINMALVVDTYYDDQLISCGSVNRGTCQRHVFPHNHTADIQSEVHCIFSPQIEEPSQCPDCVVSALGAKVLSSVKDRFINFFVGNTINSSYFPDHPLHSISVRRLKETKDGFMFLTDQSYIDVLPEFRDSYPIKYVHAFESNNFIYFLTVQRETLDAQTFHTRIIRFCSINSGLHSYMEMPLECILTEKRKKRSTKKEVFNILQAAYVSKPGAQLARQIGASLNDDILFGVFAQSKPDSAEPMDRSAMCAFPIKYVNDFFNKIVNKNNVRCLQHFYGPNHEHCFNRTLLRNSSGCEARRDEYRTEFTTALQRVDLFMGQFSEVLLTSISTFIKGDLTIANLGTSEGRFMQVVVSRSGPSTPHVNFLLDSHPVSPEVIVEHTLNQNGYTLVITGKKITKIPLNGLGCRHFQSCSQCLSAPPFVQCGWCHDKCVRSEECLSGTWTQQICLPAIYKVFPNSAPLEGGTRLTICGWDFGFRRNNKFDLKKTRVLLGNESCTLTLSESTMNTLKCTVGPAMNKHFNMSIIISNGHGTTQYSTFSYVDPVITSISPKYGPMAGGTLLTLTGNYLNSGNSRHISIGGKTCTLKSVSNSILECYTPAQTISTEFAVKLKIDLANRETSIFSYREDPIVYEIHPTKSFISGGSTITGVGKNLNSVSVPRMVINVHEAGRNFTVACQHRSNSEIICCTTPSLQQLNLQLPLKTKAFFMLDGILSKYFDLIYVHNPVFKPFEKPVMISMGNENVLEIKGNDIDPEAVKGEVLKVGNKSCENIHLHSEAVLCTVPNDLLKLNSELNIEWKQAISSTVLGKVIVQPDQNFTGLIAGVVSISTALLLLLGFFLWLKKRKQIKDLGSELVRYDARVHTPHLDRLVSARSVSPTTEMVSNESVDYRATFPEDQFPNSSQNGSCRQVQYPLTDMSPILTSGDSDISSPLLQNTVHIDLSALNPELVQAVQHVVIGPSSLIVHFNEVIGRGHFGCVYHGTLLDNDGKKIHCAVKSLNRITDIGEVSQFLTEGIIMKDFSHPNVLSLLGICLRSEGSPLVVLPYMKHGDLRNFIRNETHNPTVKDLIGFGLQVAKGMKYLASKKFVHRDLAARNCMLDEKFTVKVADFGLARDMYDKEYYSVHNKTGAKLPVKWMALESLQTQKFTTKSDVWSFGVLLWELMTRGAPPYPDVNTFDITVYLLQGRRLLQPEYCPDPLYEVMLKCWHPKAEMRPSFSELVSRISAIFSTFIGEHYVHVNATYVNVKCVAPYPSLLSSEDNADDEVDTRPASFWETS
# Experimental: as §1, §2, §3, §4, §5, §6, §7
# [6] = target: T6, CDK2 (Homo sapiens, UniProt P24941); assay: DiscoverX KINOMEscan competition binding assay; settings: compound 10 µM; lower values = higher affinity; below 35% = significant binding
# T6 construct: purchased DiscoverX (KINOMEscan service); host or cells: E. coli BL21-derived host (T7 phage) or HEK-293
# Experimental: as §1, §2, §3, §4, §5, §6, §7
# [7] = target: T7, BRAF (Homo sapiens, UniProt P15056); assay: DiscoverX KINOMEscan competition binding assay; settings: compound 10 µM; lower values = higher affinity; below 35% = significant binding
# T7 construct: purchased DiscoverX (KINOMEscan service); host or cells: E. coli BL21-derived host (T7 phage) or HEK-293
# T7 sequence (P15056 whole entry): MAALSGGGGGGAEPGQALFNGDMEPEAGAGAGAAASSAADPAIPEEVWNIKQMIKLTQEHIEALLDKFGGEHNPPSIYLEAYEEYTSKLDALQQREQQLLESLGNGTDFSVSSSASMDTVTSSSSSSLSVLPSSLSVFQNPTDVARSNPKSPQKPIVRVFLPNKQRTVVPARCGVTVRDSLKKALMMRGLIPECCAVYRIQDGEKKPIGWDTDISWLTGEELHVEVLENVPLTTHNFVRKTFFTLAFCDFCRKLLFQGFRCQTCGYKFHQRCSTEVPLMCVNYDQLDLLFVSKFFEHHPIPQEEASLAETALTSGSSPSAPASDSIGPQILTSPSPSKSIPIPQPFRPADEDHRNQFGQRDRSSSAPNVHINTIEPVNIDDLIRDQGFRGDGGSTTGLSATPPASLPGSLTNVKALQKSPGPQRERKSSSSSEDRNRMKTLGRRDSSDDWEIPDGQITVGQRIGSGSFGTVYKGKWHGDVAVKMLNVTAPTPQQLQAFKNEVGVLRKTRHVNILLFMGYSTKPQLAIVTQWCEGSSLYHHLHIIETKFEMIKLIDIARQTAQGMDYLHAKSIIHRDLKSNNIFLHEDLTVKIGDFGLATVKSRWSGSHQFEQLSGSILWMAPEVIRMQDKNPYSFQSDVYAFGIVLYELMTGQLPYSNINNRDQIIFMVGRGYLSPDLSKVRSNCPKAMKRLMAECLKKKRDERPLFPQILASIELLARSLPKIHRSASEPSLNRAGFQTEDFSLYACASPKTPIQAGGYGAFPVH
# Experimental: as §1, §2, §3, §4, §5, §6, §7
# [8] = target: T8, EGFR (Homo sapiens, UniProt P00533); assay: DiscoverX KINOMEscan competition binding assay; settings: compound 10 µM; lower values = higher affinity; below 35% = significant binding
# T8 construct: purchased DiscoverX (KINOMEscan service); host or cells: E. coli BL21-derived host (T7 phage) or HEK-293
# T8 sequence (P00533 25-1210): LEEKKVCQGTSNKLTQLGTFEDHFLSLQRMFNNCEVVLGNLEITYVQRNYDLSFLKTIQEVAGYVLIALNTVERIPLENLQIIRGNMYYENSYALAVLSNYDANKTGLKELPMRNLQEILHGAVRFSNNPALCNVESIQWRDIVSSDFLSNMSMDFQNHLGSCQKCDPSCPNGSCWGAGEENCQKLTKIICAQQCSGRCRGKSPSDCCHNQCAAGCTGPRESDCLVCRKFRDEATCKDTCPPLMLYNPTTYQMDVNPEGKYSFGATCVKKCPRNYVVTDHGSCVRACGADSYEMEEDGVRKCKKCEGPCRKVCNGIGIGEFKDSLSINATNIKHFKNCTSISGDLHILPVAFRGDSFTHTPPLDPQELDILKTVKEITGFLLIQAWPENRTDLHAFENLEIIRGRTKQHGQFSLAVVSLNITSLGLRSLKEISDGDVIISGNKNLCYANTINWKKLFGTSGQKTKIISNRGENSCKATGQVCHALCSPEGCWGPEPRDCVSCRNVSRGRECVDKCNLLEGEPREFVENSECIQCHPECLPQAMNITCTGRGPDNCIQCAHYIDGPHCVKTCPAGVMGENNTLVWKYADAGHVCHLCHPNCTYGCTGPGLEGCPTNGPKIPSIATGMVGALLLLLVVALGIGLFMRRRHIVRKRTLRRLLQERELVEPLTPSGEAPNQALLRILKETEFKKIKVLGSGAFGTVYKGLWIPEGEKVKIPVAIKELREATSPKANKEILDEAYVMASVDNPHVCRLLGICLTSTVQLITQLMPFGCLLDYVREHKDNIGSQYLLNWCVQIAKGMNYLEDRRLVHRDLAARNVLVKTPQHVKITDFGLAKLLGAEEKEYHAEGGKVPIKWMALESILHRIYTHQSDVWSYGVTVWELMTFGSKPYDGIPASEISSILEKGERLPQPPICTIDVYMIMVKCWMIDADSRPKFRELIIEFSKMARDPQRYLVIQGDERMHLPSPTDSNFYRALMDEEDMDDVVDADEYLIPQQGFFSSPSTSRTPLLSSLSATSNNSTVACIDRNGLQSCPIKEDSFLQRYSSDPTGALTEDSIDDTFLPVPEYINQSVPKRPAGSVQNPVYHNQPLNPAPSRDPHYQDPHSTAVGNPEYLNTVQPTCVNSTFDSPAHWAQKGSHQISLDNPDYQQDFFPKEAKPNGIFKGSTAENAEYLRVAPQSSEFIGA
# Experimental: as §1, §2, §3, §4, §5, §6, §7
# [9] = target: T4, ErbB2; assay: Eurofins in vitro kinase inhibition assay; assay type: biochemical; settings: compound 20 µM; mean (SD); above 50% significant, 25-50% weak
# Experimental: (§8) Kinase inhibition assays for EGFR, ErbB2, PI3K and BRAF were carried out by Eurofins Cerep following the protocols of Weber et al. (EGFR), Quian et al. (ErbB2), Sinnamon et al. (PI3K) and Kupcho et al. (BRAF). Briefly, except for PI3K, compounds were incubated with the respective kinase, ATP, and a substrate analog, and the effect of each compound on phosphorylation was measured. In the case of PI3K, the displacement of biotinylated PIP3 from a PIP3-binding complex by unlabelled PIP3 (produced from PIP2 by PI3K) was measured by Homogeneous Time Resolved Fluorescence (HTRF).
# (§9) Finally, inhibition of the respective kinases is calculated as the percentage inhibition of control activity.
# (§10) Table S3. Experimental results from the Euroﬁns assay. Inhibition of four kinases (EGFR, PI3K, ErbB2, BRAF) was measured at compound concentrations of 20 µM. Inhibition was calculated as % inhibition of control activity. According to CRO, values above 50% inhibition represent signiﬁcant inhibition, values above 25% weak inhibition effect and values below 25% as well as negative values are usually not signiﬁcant. Results are reported in mean (SD) format. […]
# (§11) a Compound interfered with assay readout.
# [10] = target: T7, BRAF; assay: Eurofins in vitro kinase inhibition assay; assay type: biochemical; settings: compound 20 µM; mean (SD); above 50% significant, 25-50% weak
# Experimental: as §8, §9, §10, §11
# [11] = target: T8, EGFR; assay: Eurofins in vitro kinase inhibition assay; assay type: biochemical; settings: compound 20 µM; mean (SD); above 50% significant, 25-50% weak
# Experimental: as §8, §9, §10, §11
# [12] = target: T9, PI3K (Homo sapiens, UniProt P42336); assay: DiscoverX KINOMEscan competition binding assay; parameters: purchased DiscoverX (KINOMEscan service); host or cells: E. coli BL21-derived host (T7 phage) or HEK-293; settings: compound 10 µM; lower values = higher affinity; below 35% = significant binding
# Experimental: as §1, §2, §3, §4, §5, §6, §7
# [13] = target: T9, PI3K; assay: Eurofins in vitro kinase inhibition assay (HTRF, PIP3 displacement); assay type: biochemical; parameters: purchased Eurofins Cerep (contract assay); settings: compound 20 µM; mean (SD); above 50% significant, 25-50% weak
# Experimental: as §8, §9, §10, §11
# T1 sequence (P35968 20-1356): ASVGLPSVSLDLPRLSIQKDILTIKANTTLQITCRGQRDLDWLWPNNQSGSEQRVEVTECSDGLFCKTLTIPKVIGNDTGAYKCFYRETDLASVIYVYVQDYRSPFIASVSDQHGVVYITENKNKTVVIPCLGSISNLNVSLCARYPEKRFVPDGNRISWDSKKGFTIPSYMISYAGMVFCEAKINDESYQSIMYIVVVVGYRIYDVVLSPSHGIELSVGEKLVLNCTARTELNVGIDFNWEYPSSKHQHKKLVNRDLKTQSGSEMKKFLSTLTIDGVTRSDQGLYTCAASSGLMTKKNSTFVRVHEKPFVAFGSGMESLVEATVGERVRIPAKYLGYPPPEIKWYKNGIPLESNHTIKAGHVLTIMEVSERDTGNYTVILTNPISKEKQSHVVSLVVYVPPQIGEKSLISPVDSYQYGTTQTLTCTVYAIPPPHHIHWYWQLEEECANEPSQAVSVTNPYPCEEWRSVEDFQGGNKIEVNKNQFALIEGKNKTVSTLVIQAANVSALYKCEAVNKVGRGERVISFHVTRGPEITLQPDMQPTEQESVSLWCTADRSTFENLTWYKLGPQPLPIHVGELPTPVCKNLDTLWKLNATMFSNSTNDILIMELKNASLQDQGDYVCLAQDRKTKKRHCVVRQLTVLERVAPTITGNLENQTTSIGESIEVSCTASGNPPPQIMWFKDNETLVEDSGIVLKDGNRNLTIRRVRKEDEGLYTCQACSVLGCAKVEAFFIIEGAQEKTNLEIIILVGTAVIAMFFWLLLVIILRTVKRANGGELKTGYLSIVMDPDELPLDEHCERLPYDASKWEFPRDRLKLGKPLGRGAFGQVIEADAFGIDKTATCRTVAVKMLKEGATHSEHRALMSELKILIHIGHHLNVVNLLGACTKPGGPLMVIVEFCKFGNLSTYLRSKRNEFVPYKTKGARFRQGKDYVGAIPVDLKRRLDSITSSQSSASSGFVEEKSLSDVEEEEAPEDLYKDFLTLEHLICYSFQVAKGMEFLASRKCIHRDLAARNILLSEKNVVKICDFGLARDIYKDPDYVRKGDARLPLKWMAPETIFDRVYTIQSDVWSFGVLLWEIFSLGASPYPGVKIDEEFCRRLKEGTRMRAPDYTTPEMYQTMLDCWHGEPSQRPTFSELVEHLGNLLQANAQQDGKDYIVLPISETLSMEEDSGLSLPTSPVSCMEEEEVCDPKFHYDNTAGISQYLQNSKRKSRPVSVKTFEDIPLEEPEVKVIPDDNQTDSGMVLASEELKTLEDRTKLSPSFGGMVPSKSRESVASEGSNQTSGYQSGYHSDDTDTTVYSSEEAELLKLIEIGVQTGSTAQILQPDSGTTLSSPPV
"% control, VEGFR2 (DiscoverX) [1]","% control, p38α (DiscoverX) [2]","% control, LCK (DiscoverX) [3]","% control, ErbB2 (DiscoverX) [4]","% control, MET (DiscoverX) [5]","% control, CDK2 (DiscoverX) [6]","% control, BRAF (DiscoverX) [7]","% control, EGFR (DiscoverX) [8]","% inhibition of control activity, ErbB2 (Eurofins) [9]","% inhibition of control activity, BRAF (Eurofins) [10]","% inhibition of control activity, EGFR (Eurofins) [11]","% control, PI3K (DiscoverX) [12]","% inhibition of control activity, PI3K (Eurofins) [13]",Compound
98 % control,100 % control,100 % control,100 % control,90 % control,100 % control,99 % control,100 % control,-3.4 (1.0) % inhibition,-13.7 (10.5) % inhibition,2.4 (14.7) % inhibition,100 % control,1.8 (4.4) % inhibition,Cc1ccc(-n2cnnn2)cc1NC(=O)NC1CC1 [DS44245]
98 % control,100 % control,100 % control,94 % control,91 % control,100 % control,100 % control,100 % control,4.5 (4.9) % inhibition,-17.7 (15.6) % inhibition,22.7 (15.5) % inhibition,100 % control,0.9 (3.6) % inhibition,O=C1C[C@@H](c2noc(-c3ccc[nH]c3=O)n2)CN1Cc1ccccc1 [DS52225]
100 % control,100 % control,100 % control,99 % control,99 % control,100 % control,88 % control,100 % control,0.1 (2.1) % inhibition,-8.3 (20.8) % inhibition,18.1 (7.9) % inhibition,99 % control,-0.2 (0.4) % inhibition,COCCCNC(=O)c1nc2c3c4c(sc3ncn2n1)COC(C)(C)C4 [DS11689]
100 % control,100 % control,100 % control,100 % control,100 % control,100 % control,86 % control,89 % control,-2.8 (0.7) % inhibition,-0.3 (1.6) % inhibition,18 (3.2) % inhibition,97 % control,2.1 (0.4) % inhibition,O=C(O)c1cncnc1NCc1nc(-c2cnccn2)n[nH]1 [DS74417]

# More lines, now with the values behind:
Compound,"% control, VEGFR2 (DiscoverX) [1]","% control, p38α (DiscoverX) [2]","% control, LCK (DiscoverX) [3]","% control, ErbB2 (DiscoverX) [4]","% control, MET (DiscoverX) [5]","% control, CDK2 (DiscoverX) [6]","% control, BRAF (DiscoverX) [7]","% control, EGFR (DiscoverX) [8]","% inhibition of control activity, ErbB2 (Eurofins) [9]","% inhibition of control activity, BRAF (Eurofins) [10]","% inhibition of control activity, EGFR (Eurofins) [11]","% control, PI3K (DiscoverX) [12]","% inhibition of control activity, PI3K (Eurofins) [13]"
Cc1cc(=O)n2nc(N(C)CC(=O)NCc3cccs3)sc2n1 [DS72975],99 % control,100 % control,100 % control,87 % control,78 % control,100 % control,100 % control,96 % control,9.8 (21.9) % inhibition,-12.4 (1.8) % inhibition,19.8 (5.0) % inhibition,100 % control,-1.1 (2.1) % inhibition
O=C(Cn1cnc2c(cnn2CCO)c1=O)NCc1ccccc1 [DS05168],100 % control,100 % control,95 % control,100 % control,94 % control,99 % control,98 % control,100 % control,2.8 (1.6) % inhibition,-12.4 (10.9) % inhibition,11.1 (1.8) % inhibition,100 % control,-1 (1.6) % inhibition
COCCCNC(=O)c1nc2c3c4c(sc3ncn2n1)CCC[C@H]4C [DS66846],100 % control,100 % control,100 % control,96 % control,92 % control,100 % control,100 % control,100 % control,-2.5 (1.6) % inhibition,-18.7 (11.9) % inhibition,14.5 (8.6) % inhibition,100 % control,4.6 (7.7) % inhibition
O=C(Oc1ccc2c3c(c(=O)oc2c1)CCC3)c1cccc(Cl)c1 [DS76514],100 % control,97 % control,100 % control,96 % control,90 % control,100 % control,89 % control,87 % control,-0.6 (1.0) % inhibition,-33.6 (18.1) % inhibition,3.2 (10.7) % inhibition,100 % control,17.4 (0.4) % inhibition
